Laboratory results: the supplement of paper PMC10307832

Columns and labels:
Assay in all cases: relative viability (nuclei count vs DMSO), 5 days (fraction); higher = more cells survive
Vandetanib + Decitabine = compound: COc1cc2/c(=N/c3ccc(Br)cc3F)nc[nH]c2cc1OCC1CCN(C)CC1 [Vandetanib] + Nc1ncn([C@H]2C[C@H](O)[C@@H](CO)O2)c(=O)n1 [Decitabine] (partner 2 µM)
Summary of the method: (§1)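 Relative viability equals treated-well nuclei counts divided by vehicle-well nuclei counts. Counts came from 4× images of lung cancer cell lines grown in 1536-well plates for 5 days after pin-tool dosing on the day after seeding. Dosing used one drug alone or a fixed anchor-drug dose plus five library-drug doses (not always all listed) in √10 steps, and values are medians of duplicate plates.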

Vandetanib + AZD7762 = compound: COc1cc2/c(=N/c3ccc(Br)cc3F)nc[nH]c2cc1OCC1CCN(C)CC1 [Vandetanib] + NC(=O)Nc1cc(-c2cccc(F)c2)sc1C(=O)N[C@H]1CCCNC1 [AZD7762] (partner 0.2 µM)
Summary of the method: as §1

CUDC-101 + Decitabine = compound: C#Cc1cccc(Nc2ncnc3cc(OC)c(OCCCCCCC(=O)NO)cc23)c1 [CUDC-101] + Nc1ncn([C@H]2C[C@H](O)[C@@H](CO)O2)c(=O)n1 [Decitabine] (partner 2 µM)
Summary of the method: as §1

Vandetanib + Pictilisib = compound: COc1cc2/c(=N/c3ccc(Br)cc3F)nc[nH]c2cc1OCC1CCN(C)CC1 [Vandetanib] + CS(=O)(=O)N1CCN(Cc2cc3nc(-c4cccc5[nH]ncc45)nc(N4CCOCC4)c3s2)CC1 [Pictilisib] (partner 1 µM)
Summary of the method: as §1

| Cell Line | relative viability (Vandetanib + Decitabine; first compound 0.02 µM) | relative viability (Vandetanib + Decitabine; first compound 0.06325 µM) | relative viability (Vandetanib + Decitabine; first compound 0.2 µM) | relative viability (Vandetanib + Decitabine; first compound 0.6325 µM) | relative viability (Vandetanib + Decitabine; first compound 2 µM) | relative viability (Vandetanib + AZD7762; first compound 0.02 µM) | relative viability (Vandetanib + AZD7762; first compound 0.06325 µM) | relative viability (Vandetanib + AZD7762; first compound 0.2 µM) | relative viability (Vandetanib + AZD7762; first compound 0.6325 µM) | relative viability (Vandetanib + AZD7762; first compound 2 µM) | relative viability (CUDC-101 + Decitabine; first compound 0.01 µM) | relative viability (CUDC-101 + Decitabine; first compound 0.03162 µM) | relative viability (CUDC-101 + Decitabine; first compound 0.1 µM) | relative viability (CUDC-101 + Decitabine; first compound 0.3162 µM) | relative viability (CUDC-101 + Decitabine; first compound 1 µM) | relative viability (Vandetanib + Pictilisib; first compound 0.02 µM) | relative viability (Vandetanib + Pictilisib; first compound 0.06325 µM) | relative viability (Vandetanib + Pictilisib; first compound 0.2 µM) | relative viability (Vandetanib + Pictilisib; first compound 0.6325 µM) | relative viability (Vandetanib + Pictilisib; first compound 2 µM) |
| --- | --- | --- | --- | --- | --- | --- | --- | --- | --- | --- | --- | --- | --- | --- | --- | --- | --- | --- | --- | --- |
| NCI-H2405 | 0.749 | 0.687 | 0.747 | 0.8 | 0.718 | 0.703 | 0.651 | 0.674 | 0.698 | 0.571 | 0.853 | 0.705 | 0.776 | 0.762 | 0.643 | 0.535 | 0.264 | 0.44 | 0.45 | 0.222 |
| NCI-H2023 | 0.235 | 0.183 | 0.225 | 0.253 | 0.204 |  |  |  |  |  | 0.222 | 0.248 | 0.188 | 0.212 | 0.193 | 0.218 | 0.201 | 0.261 | 0.202 | 0.279 |
| NCI-H1650 | 0.361 | 0.451 | 0.413 | 0.502 | 0.403 |  |  |  |  |  | 0.351 | 0.444 | 0.469 | 0.387 | 0.302 | 0.561 | 0.511 |  | 0.555 | 0.515 |
| NCI-H1703 |  |  |  |  |  | 0.129 |  | 0.159 | 0.132 | 0.134 |  |  |  |  |  | 0.244 | 0.217 | 0.212 | 0.211 | 0.231 |
| SK-LU-1 | 0.605 | 0.562 | 0.658 | 0.612 | 0.654 |  |  |  |  |  | 0.671 | 0.646 | 0.677 | 0.729 | 0.609 | 0.657 | 0.43 | 0.509 | 0.663 | 0.532 |
| NCI-H2009 | 0.359 | 0.394 | 0.369 | 0.371 | 0.325 |  |  |  |  |  | 0.416 | 0.372 | 0.415 | 0.438 | 0.351 | 0.78 | 0.669 | 0.79 | 0.828 | 0.81 |
| EBC-1 |  |  |  |  |  |  |  |  |  |  |  |  |  |  |  | 0.465 | 0.345 | 0.404 | 0.359 | 0.242 |
| NCI-H2342 | 0.727 | 0.75 | 0.8 | 0.699 | 0.723 | 0.483 | 0.479 | 0.707 | 0.537 | 0.365 | 0.737 | 0.718 | 0.739 | 0.777 | 0.709 |  |  |  |  |  |
| NCI-H661 | 0.536 | 0.556 | 0.527 | 0.46 | 0.446 |  |  |  |  |  | 0.544 | 0.497 | 0.487 | 0.571 | 0.307 | 0.381 |  | 0.373 | 0.382 | 0.347 |
| SW 900 | 0.406 | 0.39 |  | 0.48 | 0.437 | 0.6 | 0.607 |  | 0.598 | 0.688 | 0.428 | 0.405 | 0.426 | 0.397 | 0.33 |  |  |  |  |  |
| IA-LM |  |  |  |  |  |  |  |  |  |  |  |  |  |  |  | 0.349 |  | 0.345 | 0.405 | 0.331 |
| SK-MES-1 | 0.419 | 0.38 | 0.411 | 0.276 | 0.252 |  |  |  |  |  | 0.349 | 0.466 | 0.332 | 0.392 | 0.261 | 0.379 | 0.294 | 0.319 | 0.259 | 0.22 |
| COR-L 105 | 0.683 | 0.574 | 0.622 | 0.561 | 0.505 |  |  |  |  |  | 0.67 | 0.752 | 0.622 | 0.723 | 0.351 | 0.408 | 0.405 | 0.412 | 0.344 | 0.335 |
| NCI-H522 | 0.619 | 0.691 | 0.717 | 0.768 | 0.646 | 0.753 | 0.876 | 0.738 | 0.92 | 0.699 | 0.58 | 0.622 | 0.761 | 0.616 | 0.677 |  |  |  |  |  |
| CAL-12T |  |  |  |  |  | 0.676 | 0.611 | 0.631 | 0.643 | 0.574 |  |  |  |  |  | 0.436 | 0.412 | 0.398 | 0.398 | 0.311 |
| NCI-H1299 |  |  |  |  |  |  |  |  |  |  |  |  |  |  |  | 0.788 | 0.677 | 0.906 | 0.674 | 0.604 |
| NCI-H2228 |  |  |  |  |  |  |  |  |  |  |  |  |  |  |  | 0.383 | 0.402 |  | 0.399 | 0.297 |
| SW 1573 | 0.467 | 0.481 | 0.594 | 0.508 | 0.393 |  |  |  |  |  | 0.552 | 0.514 | 0.489 | 0.593 | 0.264 | 0.545 | 0.534 | 0.552 | 0.436 | 0.407 |
| COR-L23 | 0.447 | 0.442 | 0.491 | 0.401 | 0.422 |  |  |  |  |  | 0.432 | 0.383 | 0.332 | 0.376 | 0.164 | 0.709 | 0.643 | 0.989 | 0.813 | 0.78 |
| NCI-H1563 |  |  |  |  |  |  |  |  |  |  |  |  |  |  |  | 0.62 | 0.707 | 0.623 | 0.656 | 0.657 |
| NCI-H1648 | 0.55 | 0.52 | 0.479 | 0.49 | 0.418 | 0.643 | 0.601 | 0.676 | 0.638 | 0.625 | 0.548 | 0.519 | 0.439 | 0.451 | 0.324 |  |  |  |  |  |
| NCI-H520 | 0.496 | 0.483 | 0.429 | 0.495 | 0.502 |  |  |  |  |  | 0.49 | 0.622 | 0.478 | 0.513 | 0.318 | 0.289 | 0.258 | 0.245 | 0.345 | 0.263 |
| A549 | 0.189 | 0.267 | 0.281 | 0.252 | 0.34 |  |  |  |  |  | 0.297 | 0.277 | 0.218 | 0.286 | 0.276 | 0.499 | 0.419 | 0.614 | 0.473 | 0.412 |
| Calu-6 |  |  |  |  |  |  |  |  |  |  |  |  |  |  |  | 0.938 | 0.9 | 0.881 | 0.807 | 0.907 |
